According to US20130130241A1, “ANDROGEN RECEPTOR ISOFORMS AND METHODS” (Regents of the University of Minnesota, priority 2010, published 2013):

Key:
[1] = test system: LNCaP cells expressing truncated AR isoforms; settings: Watson et al., 2010; cited from earlier work
[2] = test system: patients with ADI prostate cancer; settings: Phase II trial; Scher et al., 2010; cited from earlier work
androgen receptor = assay: AR knock-down by siRNA in 22Rv1 cells, Western blot; type: cell-based, human; settings: for expression of androgen receptor isoforms (Western blot): FIG. 3B
Description: FIG. 3. A) Schematic of androgen receptor mRNA isoforms expressed in 22Rv1 cells. DBD*, Exon 3-duplicated AR. B) 22Rv1 cells were electroporated with siRNAs targeted to Exons […]. androgen receptor and ERK-2 levels were determined. C) Rabbit antisera were raised against an Exon 2b-derived peptide. Equal amounts of 22Rv1 lysates were immunoprecipitated with crude antisera, or antibody purified on an immobilized Exon2b-peptide column, non-specific rabbit IgG, or a rabbit polyclonal antibody specific for the androgen receptor NTD. Western blots were performed with a mouse monoclonal antibody specific for the androgen receptor NTD.
We have investigated mechanisms of prostate cancer therapy resistance in cell- and xenograft-based models of prostate cancer progression with a focus on ligand-independent androgen receptor activation (Dehm and Tindall, 2006 J Biol Chem 281:27882-93; Dehm and Tindall, 2007 Mol Endocrinol 21:2855-63). One model of interest is the ADI 22Rv1 prostate cancer cell line, which was derived from an androgen-dependent CWR22 prostate cancer xenograft that relapsed during androgen depletion (Sramkoski et al., 1999 In Vitro Cell Dev Biol Anim 35:403-9). […] The Exon 1 and Exon 7 targeted siRNAs were purchased from Dharmacon, Inc. (Lafayette, Colo.). The sequences are as follows:
Truncated androgen receptor from 22Rv1 cells appears as a doublet in Western blot experiments (FIG. 3B). Because 3′ RACE experiments identified AR 1/2/2b and AR 1/2/3/2b as alternatively spliced androgen receptor isoforms in this cell line, we pursued the hypothesis that these two discrete bands represented AR 1/2/2b and AR 1/2/3/2b (Dehm et al., 2008 Cancer Res 68:5469-77). […] To this end, we tested siRNAs targeted to AR Exon 1, AR Exon 3, or AR Exon 7 (FIG. 3A).
Western blotting of CWR22Pc and 22Rv1 lysates with AR (Santa Cruz N-20), ERK-2 (Santa Cruz D-2), and ARV-7 (Precision Antibody #AG10008) antibodies was performed exactly as described (Dehm et al., 2008 Cancer Res 68:5469-77).

22Rv1 cells = settings: Dehm et al., 2008; cited from earlier work
[3] = test system: androgen receptor target genes; settings: 22Rv1 cells; Dehm et al., 2008; cited from earlier work

Compound	androgen-independent growth of LNCaP cells expressing truncated AR isoforms [1]	share of CRPCa patients with robust decrease in serum PSA levels (at least 50%), stabilized bone disease, conversion of CTC counts to favorable [2]	expression of a ~80 kDa androgen receptor protein species (androgen receptor)	expression of androgen receptor isoforms (Western blot) (androgen receptor)	androgen-independent proliferation of 22Rv1 cells (22Rv1 cells)	androgen-independent expression of androgen receptor target genes [3]
CNC(=O)c1ccc(N2C(=S)N(c3ccc(C#N)c(C(F)(F)F)c3)C(=O)C2(C)C)cc1F [MDV3100]	inhibit	one-half	–	–	–	–
AR Exon 1-targeted siRNA: Dharmacon siRNA duplex targeted to AR Exon 1; sense SEQ ID NO: 1, antisense SEQ ID NO: 2 (sense CAAGGGAGGUUACACCAAAUU; antisense UUUGGUGUAACCUCCCUUGUU; listed as RNA, chemistry not given here)	–	–	knocked-down	knocked down expression of all androgen receptor isoforms	inhibited	inhibited
AR Exon 7-targeted siRNA: Dharmacon siRNA duplex targeted to AR Exon 7; sense SEQ ID NO: 3, antisense SEQ ID NO: 4 (sense GGAACUCGAUCGUAUCAUUUU; antisense AAUGAUACGAUCGAGUUCCUU; listed as RNA, chemistry not given here)	–	–	–	selectively knocked down expression of full-length androgen receptor	not	not
